Experimental data published in patent US12433870B2, “Supramolecular photoprotection of a photosensitizer” (Northwestern University, priority 2019, dated 2025).

Tests used:
A2780 cells [1] = experiment: Intracellular ROS generation (DCFDA assay); format: cell-based, human; conditions: 10 μM/0.156 J cm^−2 light dose, compared with dark or untreated cells
Protocol: Intracellular ROS generation assay was performed using DCFDA Cellular ROS Detection Assay Kit (Abeam), according to the manufacturer's instructions. Briefly, A2780 cells (2.5×10^5 cells/mL, 100 μL) were seeded in each well of a black 96-well plate and incubated with PBS solution of ExBox^4+⊃DPP for 12 h. After incubation, cells were washed with PBS and incubated with 2′,7′-dichlorofluorescin diacetate (DCFDA) (20 μM) for 45 min in the dark. Then the cells were rinsed with PBS, irradiated and fluorescence was measured (λex=485 and λem=535 nm) using a microplate reader. Control experiments with PBS solution of ExBox^4+⊃DPP treated cells and untreated cells, both with and without irradiation were performed.

[2] = Solubility in water / PBS buffer; format: physicochemical; conditions: H2O
ExBox^4+ and DPP = experiment: 1H NMR titration, host-guest association constant (1:1 binding model); conditions: 1H NMR titration in (CD3)2CO, 298 K
Protocol: The synthesis of ExBox•4Cl was carried out following our previously reported procedure^17. Solid DPP (0.46 mg, […]) was dissolved in Me2CO (1 mM, 1 mL) and added to a solution of ExBox•4Cl in H2O (1.0 mM, 1 mL). The mixture was sonicated for 15 min, Me2CO was removed in vacuum, and the H2O portion was passed through a 0.45-μm filter to yield 1:1 ExBox^4+⊃DPP complex (FIG. 1A) in water. Upon complex formation, the aqueous solution color changed to light orange-pink or tangerine. […] The resonances for the α and CH2 protons of ExBox^4+ were affected only slightly by the shielding effect of DPP as they are located at the corners and display only slight shifts in their […] spectra. This pattern is in excellent agreement with the inclusion of DPP inside ExBox^4+ in solution. […] The association constant (Ka) obtained from 1:1 binding model was calculated to be 12600±300 M^−1 from the chemical shifts of […] titrations experiments (FIG. 1B-1C) between ExBox^4+ and DPP in (CD3)2CO.
The ^1H NMR (298 K, 500 MHz) titration was performed by adding small volumes of a solution of DPP in Me2CO-d6 to a solution of ExBox•4PF6 in Me2CO-d6. […]
(CD3)2CO stock solutions of ExBox^4+ (0.4 mM) and DPP (5.4 mM) were prepared. […] The NMR spectra were recorded after each addition of DPP solution. […]

MCF-7 cells = experiment: MTT assay, in vitro cytotoxicity in the dark; format: cell-based, human; conditions: 0.625-100 μM in PBS
Protocol: (§1) A2780 cells (human ovarian cancer cell line) and MCF-7 cells (human breast adenocarcinoma cell line) obtained from Sigma-Aldrich and American Type Culture Collection (ATCC, Rockville, MD, USA), respectively were utilized for cell culture experiments. These cells were cultured in Dulbecco's Modified Eagle's Medium (DMEM) supplemented with 10% fetal bovine serum (FBS), penicillin (100 IU/mL) and streptomycin (100 μg/mL) at 37° C. in the presence of air (95%) and CO2 (5%).
(§2) A2780 or MCF-7 cells (2×10^5 cells/mL, 100 μL) were seeded in each well of a black 96-well plate. Stock solution of ExBox^4+⊃DPP in PBS (1 mM, 10 μL) was added to each well to achieve working concentrations and incubated for 12 h. […] Following irradiation, cells were incubated overnight and then added with MTT (5 mg/mL in PBS, 10 μL). After 4 h incubation with MTT, media from each well was pipetted out, formazan crystals deposited on the plate were dissolved in 200 μL of Me2SO, and the absorbance of each well was measured using a microplate reader at 560 nm. All the samples were analyzed in quadruplicates.
(§3) The percentage cell viability was calculated using the following formula: % cell viability=(OD of treated sample/OD of untreated sample)*100.

A2780 cells [3] = experiment: MTT assay, in vitro cytotoxicity in the dark; format: cell-based, human; conditions: 0.625-100 μM in PBS
Protocol: as §1, §2, §3

[4] = pH-dependent release of DPP from the complex (fluorescence and transient absorption, pH 4.5); format: physicochemical
From the text: At low pH, DPP can be protonated. Therefore, the electrostatic repulsion between the cationic DPP and the tetracationic host ExBox^4+ can trigger release of DPP in H2O. Indeed, when aqueanous solution of ExBox^4+⊃DPP is acidified with HCl (pH 4.5), protonated DPP was released in H2O leading to 17-fold increment of fluorescence signals (FIG. 4A). […] The residual population survived for several microseconds and has a transient absorption spectrum of ^3*DPP; the […] (FIGS. 4D-4E) approximates the decay of the long-lived triplet state in aerated, room temperature aqueous solution. […] We estimate this fraction to be approximately 30% at the ˜20 μM concentration of the transient absorption experiments.
The setup for transient absorption measurements has been described elsewhere.^3 Photoexcitation pulses at 414 nm were obtained through a beta barium borate (BBO) crystal doubling the fundamental, and the 575 nm pulses were generated with a laboratory-constructed optical parametric amplifier. The pulse power for photoexcitation was attenuated to ˜1 μJ/pulse, using neutral density filters. The pump polarization was randomized employing a commercial depolarizer (DPU-25-A, Thorlabs, Inc.) to eliminate any orientational dynamics contributions from the experiment. […]

C1=Cc2nc1cc1ccc([nH]1)c(-c1ccccc1)c1nc(cc3ccc([nH]3)c2-c2ccccc2)C=C1.c1cc2ccc1C[n+]1ccc(cc1)-c1ccc(cc1)-c1cc[n+](cc1)Cc1ccc(cc1)C[n+]1ccc(cc1)-c1ccc(cc1)-c1cc[n+](cc1)C2 [ExBox^4+⊃DPP]
increase in intracellular ROS (A2780 cells [1]): 20 fold | solubility in H2O [2]: soluble in H2O | association constant (Ka) (ExBox^4+ and DPP): 12600 ± 300 M⁻¹ | cell viability in the dark (MCF-7 cells): > 95% | cell viability in the dark (A2780 cells [3]): > 95% | increment of fluorescence signals on release of protonated DPP ([4]; aqueous solution acidified with HCl (pH 4.5) versus pH 7, λex=414 nm): 17 fold | fraction of the complex population with DPP released (electron transfer turned off) ([4]; pH 4.5, ~20 μM, transient absorption): approximately 30%
